In brackets after ≈: the same amount, converted by molar mass. Where two headings read alike, the source gives them in different places. Ends that are not written are not given here.

Consider five compounds from US20120058935A1, “ANTIMICROBIAL COMPOSITIONS AND METHODS OF USE THEREFORE” (priority 2009, published 2012).

One data set concerns 12 microorganisms. As to the kind of experiment: Antimicrobial activity against the panel of 12 microorganisms (summary). The conditions noted are these: summary in words of the MIC experiments. Format: cell-based. The method, then:
Peptide antimicrobial activity was determined as minimal inhibitory concentration (MIC). Experiments identified peptide MIC by broth microdilution susceptibility test in conjunction with CFU and alamar blue assays. Inoculum containing mid-logarithmic phase cells was dispensed into the wells of polypropylene 96-well plates (Fisher, Pittsburgh, Pa.) containing seven two-fold dilutions of test peptide in growth media. Plates were then incubated aerobically overnight (12 to 18 hrs) at 37° C. Peptide MIC was taken as the lowest concentration able reduce cell growth by CFU and alamar blue assays by at least two-fold and which correlated with the visible loss of a growth button on the bottom of microtiter wells. Experiments were repeated a minimum of three times for each organism, and tests included at least three replicates for each assay condition. Experiments included control serial dilutions of buffer vehicle alone.

A further data set has as its system Candida albicans. Format: cell-based. The method, then:
(§1) Bacteria were cultured aerobically in Mueller-Hinton broth (MHB), Brain and Heart Infusion broth (BHIB), or BHIB supplemented with 1% lysed horse blood and plated on Tryptone Soy Agar (TSA) plates containing 5% defibrinated sheep blood. […] Organisms were subcultured for 2 hrs to generate mid-logarithmic growth cultures for use as inoculates in experiments.
(§2) Bacteria inoculum cell densities were normalized to 5×10^5 cells/ml immediately before use photometrically and subsequently confirmed by colony count. Inoculum of C. albicans contained a cell density of 2.5×10^3 CFU/ml.
(§3) Bulk powdered peptides were first dissolved in 30% trifluoroethanol (TFE) at 1 mg/ml. […] Stock solutions at 2 mg/ml were prepared the day of experimentation from the peptide films by solubilizing a second time in either water or 20% TFE. Aβ stocks prepared in water were sonicated and insoluble peptide aggregates pelleted by centrifugation (10 min×16,000 g). Peptide concentrations in stock solutions were determined immediately before use by bicinchoninic acid (BCA) protein assay. […] For MIC experiments, peptides were serially diluted into growth media. For other experiments stocks were diluted into required working buffers. Experiments included controls for peptide buffer vehicle alone.
(§4) Experiments identified peptide MIC by broth microdilution susceptibility test in conjunction with CFU and alamar blue assays. […] Peptide MIC was taken as the lowest concentration able reduce cell growth by CFU and alamar blue assays by at least two-fold and which correlated with the visible loss of a growth button on the bottom of microtiter wells. Experiments were repeated a minimum of three times for each organism, and tests included at least three replicates for each assay condition. Experiments included control serial dilutions of buffer vehicle alone.

Another data set deals with Enterococcus faecalis. It is filed as cell-based. The method, then:
as §1, §2, §3, §4

The next data set deals with Pseudomonas aeruginosa. Format: cell-based. The method, then: as §1, §2, §3, §4
Data set [1] deals with Staphylococcus epidermidis. Format: cell-based. The method, then:
as §1, §2, §3, §4

In another data set the test system is Streptococcus pyogenes. It is filed as cell-based. The method, then: as §1, §2, §3, §4
For a further data set, the system named is Listeria monocytogenes. It is filed as cell-based. The method, then: as §1, §2, §3, §4
For another data set, the system named is E. faecalis. As to the kind of experiment: E. faecalis growth curves with peptide (CFU with time). It is filed as cell-based, Enterococcus faecalis. The conditions noted are these: 25 μg/ml peptide; CFU counted with time (FIG. 1).
The next data set deals with Streptococcus salivarius. Format: cell-based. The conditions noted are these: ATCC 13419; BHIB/LHB; 12 hrs incubation at 37° C. The method, then: as §1, §2, §3, §4
Another data set deals with Streptococcus pneumoniae. It is filed as cell-based. The conditions noted are these: ATCC 49619; BHIB/LHB; 12 hrs incubation at 37° C. The method, then: as §1, §2, §3, §4
Another data set deals with Escherichia coli. It is filed as cell-based. The conditions noted are these: ATCC 25922; BHIB; 12 hrs incubation at 37° C. The method, then:
as §1, §2, §3, §4

The test system of the next data set is Streptococcus agalactiae. It is filed as cell-based. The conditions noted are these: ATCC 12386; BHIB/LHB; 12 hrs incubation at 37° C. The method, then:
as §1, §2, §3, §4

A further data set deals with Staphylococcus aureus. It is filed as cell-based. The conditions noted are these: ATCC 25923; MHB; 12 hrs incubation at 37° C. The method, then:
as §1, §2, §3, §4

The next data set has as its system Streptococcus mitis. It is filed as cell-based. The conditions noted are these: ATCC 6249; BHIB/LHB; 12 hrs incubation at 37° C. The method, then: as §1, §2, §3, §4
For data set [2] the following is noted: clinical trial, AD patients, ref. [34]; cited from earlier work.

Experimental for E. faecalis: Bacterial growth with time was monitored by inoculation of agar with diluted incubants and counting CFU. Representative data from six experiments is shown as mean signal of four replicates±s.e.m.
CFU assay; Serial dilutions of incubants were prepared and streaked onto the surface of agar. The agar plates were then incubated overnight at 37° C. and colonies forming units counted.

Consider “AIVVGGVMLGIIAGKNSGVDEAFFVLKQHHVEYGSDHRFEAD [reAβ42]”, for which the “Inhibition of microbial growth, panel of 12 microorganisms” value (shortened to “Inhibition of microbial growth”) in the data set with 12 microorganisms is listed as “not inhibited”. In the data set with Candida albicans (18 h), the “MIC against Candida albicans” value was more than 25 µg/mL. Moreover, the “MIC against Enterococcus faecalis” value in the data set with Enterococcus faecalis (18 h) worked out at 50 µg/mL. In addition, the “MIC against Pseudomonas aeruginosa” value with Pseudomonas aeruginosa (18 h) is more than 50 µg/mL. Moreover, the “MIC against Staphylococcus epidermidis” value in data set [1] (18 h) was more than 50 µg/mL. For the same compound, the “MIC against Streptococcus pyogenes” value in the data set on Streptococcus pyogenes (18 h) was more than 50 µg/mL. Also, in the data set with Listeria monocytogenes (18 h), the “MIC against Listeria monocytogenes” value is more than 50 µg/mL.

`CC[C@H](C)[C@H](NC(=O)[C@H](CCCCN)NC(=O)[C@H](CCC(=O)O)NC(=O)[C@H](CCCCN)NC(=O)[C@H](CO)NC(=O)[C@H](CCCCN)NC(=O)[C@H](CCCNC(=N)N)NC(=O)[C@H](Cc1ccccc1)NC(=O)[C@H](Cc1ccccc1)NC(=O)[C@H](CC(=O)O)NC(=O)CNC(=O)[C@H](CC(C)C)NC(=O)[C@@H](N)CC(C)C)C(=O)NCC(=O)N[C@@H](CCCCN)C(=O)N[C@@H](CCC(=O)O)C(=O)N[C@@H](Cc1ccccc1)C(=O)N[C@@H](CCCCN)C(=O)N[C@@H](CCCNC(=N)N)C(=O)N[C@H](C(=O)N[C@H](C(=O)N[C@@H](CCC(N)=O)C(=O)N[C@@H](CCCNC(=N)N)C(=O)N[C@H](C(=O)N[C@@H](CCCCN)C(=O)N[C@@H](CC(=O)O)C(=O)N[C@@H](Cc1ccccc1)C(=O)N[C@@H](CC(C)C)C(=O)N[C@@H](CCCNC(=N)N)C(=O)N[C@@H](CC(N)=O)C(=O)N[C@@H](CC(C)C)C(=O)N[C@H](C(=O)N1CCC[C@H]1C(=O)N[C@@H](CCCNC(=N)N)C(=O)N[C@H](C(=O)N[C@@H](CCC(=O)O)C(=O)N[C@@H](CO)C(=O)O)[C@@H](C)O)C(C)C)[C@@H](C)CC)C(C)C)[C@@H](C)CC` [LL-37]: in the data set with E. faecalis, the “Mode of action on E. faecalis growth (bacteriostatic or bactericidal)” value is on record as “potent bactericidal activity”. Also, the “MIC against Streptococcus salivarius” value in the data set on Streptococcus salivarius came out at 50 µg/mL (≈ 11.1 µM). Moreover, the “MIC against Candida albicans” value in the data set on Candida albicans (ATCC 10231, RPMI-1640, 18 hrs incubation at 37° C.) worked out at 6.25 µg/mL (≈ 1.39 µM). Besides, the “MIC against Enterococcus faecalis” value in the data set with Enterococcus faecalis (ATCC 29212, BHIB, 18 hrs incubation at 37° C.) was 6.25 µg/mL (≈ 1.39 µM). The “MIC against Pseudomonas aeruginosa” value in the data set with Pseudomonas aeruginosa (ATCC 27853, BHIB, 18 hrs incubation at 37° C.) came to 6.25 µg/mL (≈ 1.39 µM). For the same compound, in the data set on Streptococcus pneumoniae, the “MIC against Streptococcus pneumoniae” value is 1.56 µg/mL (≈ 0.347 µM). For the same compound, the “MIC against Staphylococcus epidermidis” value in [1] (ATCC 12228, BHIB, 18 hrs incubation at 37° C.) came to 25 µg/mL (≈ 5.56 µM). Besides, in the data set on Escherichia coli, the “MIC against Escherichia coli” value worked out at 1.56 µg/mL (≈ 0.347 µM). For the same compound, the “MIC against Streptococcus agalactiae” value against Streptococcus agalactiae was 12.5 µg/mL (≈ 2.78 µM). The “MIC against Streptococcus pyogenes” value against Streptococcus pyogenes (ATCC 19615, BHIB/LHB, 18 hrs incubation at 37° C.) came out at 6.25 µg/mL (≈ 1.39 µM). In addition, the “MIC against Listeria monocytogenes” value against Listeria monocytogenes (ATCC 19112, BHIB, 18 hrs incubation at 37° C.) came out at 25 µg/mL (≈ 5.56 µM). The “MIC against Staphylococcus aureus” value against Staphylococcus aureus came out at 6.25 µg/mL (≈ 1.39 µM). Further, the “MIC against Streptococcus mitis” value against Streptococcus mitis amounted to 6.25 µg/mL (≈ 1.39 µM).

With “recAβ42: Recombinant human Aβ42 purchased from rPeptide”, the “Inhibition of microbial growth” value in the data set on 12 microorganisms is on record as “Equivalent findings”.

“DAEFGHDSGFEVRHQKLVFFAEDVGSNKGAIIGLMVGGVVIA [roAβ42]”: in the data set with 12 microorganisms, the “Inhibition of microbial growth” value was “demonstrated antimicrobial activity”. The “MIC against Candida albicans” value with Candida albicans (18 h) was 0.78 µg/mL. The “MIC against Enterococcus faecalis” value against Enterococcus faecalis (18 h) came to 3.13 µg/mL. Besides, the “MIC against Pseudomonas aeruginosa” value in the data set on Pseudomonas aeruginosa (18 h) is more than 50 µg/mL. In addition, the “MIC against Staphylococcus epidermidis” value in data set [1] (18 h) worked out at 3.13 µg/mL. In addition, the “MIC against Streptococcus pyogenes” value against Streptococcus pyogenes (18 h) is more than 50 µg/mL. For the same compound, in the data set with Listeria monocytogenes (18 h), the “MIC against Listeria monocytogenes” value was found to be 6.25 µg/mL.

As for `C[C@@H](C(=O)O)c1ccc(-c2ccccc2)c(F)c1` [tarenflurbil], the “Rates of infection in patients receiving the drug” value in data set [2] is recorded as “significantly increased rates of infection”.
